Consider two molecules from ChEMBL document CHEMBL3044888, “Fungicidal activity of indole derivatives against some plant pathogenic fungi” (J Pestic Sci, 2010).

In brackets after ≈: the same amount, converted by molar mass.

Assay [1] has as its target T1, Peroxidase (Macrophomina phaseolina (strain MS6) (Charcoal rot fungus)) (UniProt K2RV19).
T1 sequence (whole entry): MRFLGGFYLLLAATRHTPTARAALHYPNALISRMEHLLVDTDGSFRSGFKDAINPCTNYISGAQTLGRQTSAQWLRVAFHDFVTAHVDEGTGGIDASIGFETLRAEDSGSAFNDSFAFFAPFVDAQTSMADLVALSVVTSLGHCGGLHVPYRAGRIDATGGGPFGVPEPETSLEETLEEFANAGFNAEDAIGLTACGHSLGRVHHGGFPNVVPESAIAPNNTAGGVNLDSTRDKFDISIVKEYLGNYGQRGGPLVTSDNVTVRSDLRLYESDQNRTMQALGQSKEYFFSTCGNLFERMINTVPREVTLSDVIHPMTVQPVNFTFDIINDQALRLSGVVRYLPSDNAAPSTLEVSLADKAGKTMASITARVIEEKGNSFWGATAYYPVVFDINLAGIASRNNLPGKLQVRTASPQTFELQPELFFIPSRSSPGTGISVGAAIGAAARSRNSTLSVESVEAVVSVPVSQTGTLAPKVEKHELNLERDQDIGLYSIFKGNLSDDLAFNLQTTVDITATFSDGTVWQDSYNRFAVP
The experiment in a line: Inhibition of peroxidase activity in Macrophomina phaseoli at 1 times of IC50 concentration.

Assay [2] concerns Rhizoctonia solani. Nature of the assay: In vivo effect on peroxidase activity in Rhizoctonia solani assessed as RNA content at 0.25 times of IC50 concentration (reference value: 25 +/- 0.7 mg/l). The assay is classed as functional.
A short description of assay [3]: Activation of polyphenoloxidase activity in Pythium debaryanum. On the set-up: species or system Globisporangium debaryanum.
Assay [4] has as its system Rhizoctonia solani. The experiment in a line: Inhibition of peroxidase activity in Rhizoctonia solani at 0.1 times of IC50 concentration.
A short description of assay [5]: Inhibition of polyphenoloxidase activity in Rhizoctonia solani.
Assay [6] concerns the target T1, Peroxidase (Macrophomina phaseolina (strain MS6) (Charcoal rot fungus)). Nature of the assay: Inhibition of peroxidase activity in Macrophomina phaseoli at 2 times of IC50 concentration.
The test system of assay [7] is Macrophomina phaseolina. Nature of the assay: In vivo effect on peroxidase activity in Macrophomina phaseoli assessed as DNA content at 0.25 times of IC50 concentration (reference value: 15.5 +/- 0.5 mg/l). The assay is classed as functional.
The target of assay [8] is T1, Peroxidase (Macrophomina phaseolina (strain MS6) (Charcoal rot fungus)). The experiment in a line: Inhibition of peroxidase activity in Macrophomina phaseoli at 0.5 times of IC50 concentration.
Assay [9] has as its system Globisporangium debaryanum. The experiment in a line: In vivo effect on peroxidase activity in Pythium debaryanum assessed as RNA content at 0.25 times of IC50 concentration (reference value: 32.2 +/- 0.7 mg/l). The assay is classed as functional.
Assay [10] has as its system Macrophomina phaseolina. Nature of the assay: In vivo effect on peroxidase activity in Macrophomina phaseoli assessed as RNA content at 2 times of IC50 concentration (reference value: 16.1 +/- 0.4 mg/l). The format is functional.
Assay [11] in a line: Inhibition of peroxidase activity in Fusarium culmorum.
The test system of assay [12] is Fusarium culmorum. The experiment in a line: Inhibition of peroxidase activity in Fusarium culmorum at 2 times of IC50 concentration.
For assay [13], the system named is Fusarium culmorum. Nature of the assay: Inhibition of peroxidase activity in Fusarium culmorum at 1 times of IC50 concentration.
A short description of assay [14]: Inhibition of polyphenoloxidase activity in Pythium debaryanum. On the set-up: species or system Globisporangium debaryanum.
A short description of assay [15]: Inhibition of peroxidase activity in Pythium debaryanum. On the set-up: species or system Globisporangium debaryanum.
For assay [16], the system named is Globisporangium debaryanum. The experiment in a line: Inhibition of peroxidase activity in Pythium debaryanum at 2 times of IC50 concentration.
The target of the next assay is T2, Peroxidase (Macrophomina phaseolina (strain MS6) (Charcoal rot fungus), UniProt K2RV19).
T2 sequence (K2RV19 whole entry): T1 sequence (whole entry)
The experiment in a line: Activation of peroxidase activity in Macrophomina phaseoli.

The subject of assay [17] is Globisporangium debaryanum. Nature of the assay: Inhibition of peroxidase activity in Pythium debaryanum at 1 times of IC50 concentration.

For orientation: inhibition means the share of the control response that was lost under treatment. Higher therefore signals strong suppression. By AC50 is commonly meant the midpoint of the concentration-response curve, whichever way the signal moves. What is called IC50 is the concentration needed to halve the response being measured. In the case of `c1ccc(-c2cc3ccccc3[nH]2)cc1` [2-PHENYL-1H-INDOLE], the inhibition was determined as 40.7% in assay [1]; 0% in the assay on Rhizoctonia solani [4]; 54.3% in assay [6]; 26.7% in [8]; 69.2% in the assay with Fusarium culmorum [12]; 60.1% in the assay with Fusarium culmorum [13]. The Activity amounted to 30 mg/L with Rhizoctonia solani [2], 6.8 mg/L with Macrophomina phaseolina [7], 19.8 mg/L in assay [9] and 5.9 mg/L in the assay with Macrophomina phaseolina [10]. Further, the concentration at half-maximal activity (AC50) in assay [3] was determined as 35.1 µg/mL (≈ 182 µM). Further, the IC50 in assay [5] was found to be 80.3 µg/mL (≈ 416 µM); in assay [11], 49.9 µg/mL (≈ 258 µM).
Regarding `CC(=O)n1c(-c2ccccc2)cc2ccccc21`, the figures for the concentration for half-maximal inhibition (IC50) in [14] and in assay [15] were 45.6 µg/mL (≈ 194 µM) and 96.14 µg/mL (≈ 409 µM), respectively. Besides, the Activity is 26.2 mg/L in the assay with Rhizoctonia solani [2], 10.3 mg/L with Macrophomina phaseolina [7], 26.8 mg/L in assay [9] and 6.7 mg/L in the assay on Macrophomina phaseolina [10]. The inhibition is 25.7% in assay [16] and 19.1% in [17]. For the same molecule, the half-maximal activity concentration (AC50) on Peroxidase was under 25.1 µM.
